What was measured:
Female BALB/c mice [1] = assay: Humoral immunity test for total binding IgG antibody (ELISA, SARS-COV-2 antigen protein) in serum of immunized mice; type: in vivo; conditions: IN002.5.1 mRNA LNP, 50 μL IM, serum on 14th day after immunization; FIG. 5-6
Female BALB/c mice [2] = assay: In vivo safety of hEPO mRNA lipid nanoparticle: serum alanine aminotransferase (ALT) enzyme activity; conditions: hEPO mRNA LNP, 300 μL IV, serum 12 h after injection; FIG. 1
Protocol: A human erythropoietin mRNA (hEPO mRNA)-encapsulating lipid nanoparticle formulation was prepared according to the method as described in Experimental Example 1, with replacing the luciferase mRNA (Fluc mRNA) with human erythropoietin mRNA (hEPO mRNA), with a concentration of hEPO mRNA of 0.2 g/L, a mass ratio of hEPO mRNA to Lipid of 1:10, a particle size of 90-130 nm, and an encapsulation efficiency of above 90% or higher.
Animal preparation: Female BALB/c mice of 6-8 weeks old were selected and raised in an SPF grade breeding room. Animal testing was conducted in strict accordance with the guidelines of national health institutions and animal ethics requirements.
In vivo Delivery: Prior to injection of the test LNP formulations, the LNP formulations were gently and repeatedly inverted to thoroughly mix the formulation samples. A corresponding amount of the formulation samples were aspirated with a 1 ml insulin syringe, and the LNP formulations were injected by tail vein injection (IV), with 5 mice per formulation. Each mouse was injected with 300 μL of the human erythropoietin mRNA (hEPO mRNA)-encapsulating lipid nanoparticle formulation.
Serum acquisition: Blood samples of mice were collected 12 h after injection, placed in tubes without anticoagulants, and naturally coagulated at room temperature for 30-60 min, and then centrifuged at a speed of 3500 rpm for 10 min to obtain the supernatant, which was the serum.
The detection of alanine transaminase was carried out according to instructions of the kit (Nanjing Jiancheng Bioengineering Institute, Catalog. No. C009-2-1), and a standard curve was made using the standard provided in the kit. D-PBS was used in the experiment, which was purchased from Sangon Biotech (Shanghai) Co., Ltd., Catalog No. E607009-0600.
The method of detection of enzyme activity of alanine aminotransferase (ALT) in serum of the mice is as follows:
• (1) Enzymatic reaction: 0, 2, 4, 6, 8 and 10 μL of […] sodium pyruvate standard solution were sequentially added to 5 μL of 0.1 mol/L phosphate buffer, and the volume was supplemented to 25 μL with a matrix solution, and repeatedly aspirating and spitting with a pipette for mixing well; • (2) Addition reaction: 20 μL 2,4-dinitrophenylhydrazine solution was added to all reaction wells in (1), mixed by aspirating and spitting, and then placed in an incubator at 37° C. to react for 20 min; • (3) Developing: 200 μL of 0.4 mol/L NaOH solution was added to all reaction wells in (2) to stop the reaction, mixed by aspirating and spitting, and incubated at room temperature for 15 min. The OD value of each well was measured at 510 nm in a microplate reader; and • (4) Data processing of standard curve: The corresponding absolute OD value for each well was obtained by subtracting the OD value for 0 μL well from the measured OD value for each well, the corresponding ALT Karmen units being 0, 28, 57, 97, 150 and 200 U/L, respectively. The standard curve was obtain by taking the absolute OD value as the abscissa and the corresponding Karmen unit as the ordinate.
• (1) Reagent preparation: an ALT matrix solution was placed in an incubator at 37° C. for preheating; • (2) Enzymatic reaction: 5 μL diluted serum was aspirated and added to a 96-well plate, then 20 μL matrix solution was added to the corresponding sample well and mixed by repeatedly aspirating and spitting to avoid bubbling, and then placed in an incubator at 37° C. for 30 min; • (3) Addition reaction: 20 μL 2,4-dinitrophenylhydrazine was added to all reaction wells in (2), mixed by aspirating and spitting, and then reacted in an incubator at 37° C. for 20 min; • (4) Developing: 200 μL of 0.4 mol/L NaOH solution was added to all reaction wells in (3) to stop the reaction, mixed by aspirating and spitting, and then incubated at room temperature for 15 min. […]

SMILES	Humoral immunity effect (IgG titer) compared to ALC0315 (Female BALB/c mice [1])	ALT enzyme activity (Karmen unit) compared to ALC0315 and SM-102 (Female BALB/c mice [2])
CCCCCCC(CCCCCC)OC(=O)CCCCCCCCC(CCCCCCCCC(=O)OC(CCCCCC)CCCCCC)OC(=O)N(CCCN(C)C)CCC(=O)OCCCC [Compound 264]	better humoral immunity effect	significantly lower ALT enzyme activity
CCCCCCOC(=O)CN(CCCN(C)C)C(=O)OC(CCCCCCCCC(=O)OC(CCCCCC)CCCCCC)CCCCCCCCC(=O)OC(CCCCCC)CCCCCC [Compound 272]	–	significantly lower ALT enzyme activity
CCCCCCC(CCCCCC)OC(=O)CCCCCCCCC(CCCCCCCCC(=O)OC(CCCCCC)CCCCCC)OC(=O)N(CCCN(C)C)CC(=O)OCCCC [Compound 270]	better humoral immunity effect	significantly lower ALT enzyme activity
CCCCCCCOC(=O)CN(CCCN(C)C)C(=O)OC(CCCCCCCCC(=O)OC(CCCCCC)CCCCCC)CCCCCCCCC(=O)OC(CCCCCC)CCCCCC [Compound 273]	better humoral immunity effect	significantly lower ALT enzyme activity
CCCCCCCOC(=O)CCN(CCCN(C)C)C(=O)OC(CCCCCCCCC(=O)OC(CCCCCC)CCCCCC)CCCCCCCCC(=O)OC(CCCCCC)CCCCCC [Compound 267]	–	significantly lower ALT enzyme activity

Reference: US20250250227A1, “AMINO LIPID COMPOUND, PREPARATION METHOD THEREFOR, COMPOSITION THEREOF AND USE THEREOF” (SHENZHEN SHENXIN BIOTECHNOLOGY CO., LTD., priority 2022, published 2025)
